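Briefly, cells in 96-well plates were exposed to five compound concentrations for 48 h, and endpoints were estimated by linear interpolation. Abbreviation: GI50, concentration required for 50% inhibition of growth. TGI denotes the concentration required for complete inhibition of growth.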
Tests used:
Test in all cases: NCI-60 cell line screen, 48 h; in the data active = GI50 below about 0.43 µM; inactive = the rest
SN12C renal = test system: SN12C renal
EKVX NSCLC = test system: EKVX NSCLC
ACHN renal = test system: ACHN renal
HOP-92 NSCLC = test system: HOP-92 NSCLC
SF-295 CNS = test system: SF-295 CNS
UO-31 renal = test system: UO-31 renal
SW-620 colon = test system: SW-620 colon
OVCAR-4 ovarian = test system: OVCAR-4 ovarian
MCF7 breast = test system: MCF7 breast
NCI/ADR-RES ovarian = test system: NCI/ADR-RES ovarian

Cc1ccc(Nc2nc3c(s2)C(=O)c2ccccc2C3=O)c(C)c1
29.4 µM: TGI (SF-295 CNS)
33 µM: TGI (EKVX NSCLC)
43.5 µM: TGI (SW-620 colon)
22.9 µM: TGI (HOP-92 NSCLC)
31.1 µM: TGI (SN12C renal)
25 µM: TGI (OVCAR-4 ovarian)
30.6 µM: TGI (ACHN renal)
27.3 µM: TGI (UO-31 renal)

CN(C)CC/C(=N\Nc1c(Cl)cccc1Cl)c1ccccc1
50.5 µM: TGI (ACHN renal)
94.7 µM: TGI (EKVX NSCLC)
92.7 µM: TGI (SN12C renal)
35.9 µM: TGI (SF-295 CNS)
22.5 µM: TGI (UO-31 renal)
36.8 µM: TGI (SW-620 colon)
47.4 µM: TGI (OVCAR-4 ovarian)

Cc1ccc(N(C(=O)CC(=O)NN)C(=O)c2ccccc2Cl)cc1
> 100 µM: TGI (SN12C renal) | TGI (EKVX NSCLC) | TGI (ACHN renal) | TGI (HOP-92 NSCLC) | TGI (SF-295 CNS) | TGI (UO-31 renal) | TGI (SW-620 colon) | TGI (OVCAR-4 ovarian)

CC(=O)[CH-]C(=O)c1ccccc1.CC(=O)[CH-]C(=O)c1ccccc1.O=C([O-])c1ccc([O-])cc1.O=C([O-])c1ccc([O-])cc1.[Ti+4]
> 100 µM: TGI (SN12C renal) | TGI (ACHN renal) | TGI (SF-295 CNS) | TGI (SW-620 colon) | TGI (OVCAR-4 ovarian)
79.6 µM: TGI (EKVX NSCLC)
inactive: GI50 (SN12C renal) 51.3 µM | GI50 (EKVX NSCLC) 23.9 µM | GI50 (ACHN renal) 75 µM | GI50 (SF-295 CNS) 41.6 µM | GI50 (UO-31 renal) 23.1 µM | GI50 (SW-620 colon) 43 µM | GI50 (OVCAR-4 ovarian) 57.1 µM
76.4 µM: TGI (UO-31 renal)

CCC[CH2][Sn]1([CH2]CCC)[O]C(=O)C(C(C)C)N=Cc2ccccc2[O]1 (centres undefined)
2.07 µM: TGI (OVCAR-4 ovarian)
0.318 µM: TGI (SW-620 colon)
active: GI50 (SN12C renal) 0.288 µM | GI50 (EKVX NSCLC) 0.402 µM | GI50 (ACHN renal) 0.274 µM | GI50 (HOP-92 NSCLC) 0.131 µM | GI50 (SW-620 colon) 0.158 µM
1.8 µM: TGI (UO-31 renal)
0.442 µM: TGI (HOP-92 NSCLC)
inactive: GI50 (SF-295 CNS) 1.04 µM | GI50 (UO-31 renal) 0.462 µM | GI50 (OVCAR-4 ovarian) 0.836 µM
0.882 µM: TGI (ACHN renal)
0.987 µM: TGI (SN12C renal)
1.67 µM: TGI (EKVX NSCLC)
2.29 µM: TGI (SF-295 CNS)

COc1c2c(cc3nc4ccccc4nc13)CCC(C(C)(C)O)C2 (centres undefined)
> 100 µM: TGI (SN12C renal) | TGI (EKVX NSCLC) | TGI (ACHN renal) | TGI (HOP-92 NSCLC) | TGI (SF-295 CNS) | TGI (UO-31 renal) | TGI (SW-620 colon) | TGI (OVCAR-4 ovarian)

Cc1cccc(NC(=O)C(=O)Cc2nc3ccccc3[nH]c2=O)c1C
> 100 µM: TGI (SN12C renal) | TGI (EKVX NSCLC) | TGI (ACHN renal) | TGI (HOP-92 NSCLC) | TGI (SF-295 CNS) | TGI (UO-31 renal) | TGI (SW-620 colon) | TGI (OVCAR-4 ovarian)

COC(=O)c1cccc2cccc(C(=O)Nc3ccc(C)cc3C)c12
> 100 µM: TGI (SN12C renal) | TGI (EKVX NSCLC) | TGI (ACHN renal) | TGI (HOP-92 NSCLC) | TGI (SF-295 CNS) | TGI (UO-31 renal) | TGI (SW-620 colon) | TGI (OVCAR-4 ovarian)

NC(CC(=O)OCc1ccccc1)C(=O)OCc1ccccc1 (centres undefined)
> 100 µM: TGI (MCF7 breast) | TGI (SN12C renal) | TGI (EKVX NSCLC) | TGI (ACHN renal) | TGI (SF-295 CNS) | TGI (NCI/ADR-RES ovarian) | TGI (UO-31 renal) | TGI (SW-620 colon)

CCOC(=O)CN=c1nc(SC)sc2c(C(=O)OCC)nc(Sc3ccccc3)n12
> 100 µM: TGI (SN12C renal) | TGI (EKVX NSCLC) | TGI (HOP-92 NSCLC) | TGI (UO-31 renal) | TGI (SW-620 colon) | TGI (OVCAR-4 ovarian)

C=CCCCCCCCCC(=O)NS(=O)(=O)c1ccccc1
> 100 µM: TGI (SN12C renal) | TGI (EKVX NSCLC) | TGI (ACHN renal) | TGI (HOP-92 NSCLC) | TGI (SF-295 CNS) | TGI (UO-31 renal) | TGI (SW-620 colon) | TGI (OVCAR-4 ovarian)

O=C(O)CP(=S)(S)c1ccccc1 (centres undefined)
> 100 µM: TGI (SN12C renal) | TGI (EKVX NSCLC) | TGI (ACHN renal) | TGI (HOP-92 NSCLC) | TGI (SF-295 CNS) | TGI (UO-31 renal) | TGI (SW-620 colon) | TGI (OVCAR-4 ovarian)

Cc1noc(C)c1CCCOC1COc2ccccc2OCCOCCOc2ccccc2OC1
> 100 µM: TGI (SN12C renal) | TGI (EKVX NSCLC) | TGI (ACHN renal) | TGI (SF-295 CNS) | TGI (UO-31 renal) | TGI (SW-620 colon) | TGI (OVCAR-4 ovarian)

CC[O-].CC[O-].O=C1c2ccccc2C(=O)c2c(O)ccc([O-])c21.O=C1c2ccccc2C(=O)c2c(O)ccc([O-])c21.[Ti+4]
> 100 µM: TGI (SN12C renal) | TGI (EKVX NSCLC) | TGI (ACHN renal) | TGI (SF-295 CNS) | TGI (UO-31 renal) | TGI (SW-620 colon) | TGI (OVCAR-4 ovarian)

O=c1cccccc1NCCCNc1cccccc1=O
32.3 µM: TGI (SN12C renal)
> 100 µM: TGI (EKVX NSCLC) | TGI (ACHN renal) | TGI (HOP-92 NSCLC) | TGI (SF-295 CNS) | TGI (UO-31 renal) | TGI (SW-620 colon)

NC1=NN(c2ccccc2)C(=O)C1C(=O)CCC(=O)Nc1cccc(C(F)(F)F)c1 (centres undefined)
> 100 µM: TGI (SN12C renal) | TGI (EKVX NSCLC) | TGI (ACHN renal) | TGI (HOP-92 NSCLC) | TGI (SF-295 CNS) | TGI (UO-31 renal) | TGI (SW-620 colon) | TGI (OVCAR-4 ovarian)

COC(=O)c1cc(Br)c(Br)n1C
> 100 µM: TGI (SN12C renal) | TGI (EKVX NSCLC) | TGI (ACHN renal) | TGI (HOP-92 NSCLC) | TGI (SF-295 CNS) | TGI (UO-31 renal) | TGI (SW-620 colon) | TGI (OVCAR-4 ovarian)
